Data reported in publication PMC12267056 (Nature, 2025).
Where “and” joins values, the source holds several entries; their conditions need not be identical. Equal values may be shown once. Read-outs that look alike come from different tables or passages of the source. One block for each compound: values may come before it.

Columns and labels:
Design in all cases: made in house; host or cells: Saccharomyces cerevisiae FGY217
[1] = target: T1, human SLC35B1 (wild type) (Homo sapiens, UniProt P78383); assay: Uptake of [3H]ATP or [3H]ADP into nucleotide-preloaded SLC35B1 proteoliposomes; type: biochemical; conditions: for radiolabelled nucleotide uptake into proteoliposomes preloaded with the named nucleotide (individual replicates; ATP-loaded about 100): 2 minutes, sheet ED 6G, internal (preloaded) nucleotide as labelled; for [3H]ADP import with nucleotide preloading, relative to ATP preloading: liposomes preloaded with 1 mM nucleotide; for Single time point (1 min) uptake of [3H]-ADP by proteoliposomes preloaded with the nucleotide: preload 1 mM of the labelled nucleotide
T1 sequence (P78383 1-322): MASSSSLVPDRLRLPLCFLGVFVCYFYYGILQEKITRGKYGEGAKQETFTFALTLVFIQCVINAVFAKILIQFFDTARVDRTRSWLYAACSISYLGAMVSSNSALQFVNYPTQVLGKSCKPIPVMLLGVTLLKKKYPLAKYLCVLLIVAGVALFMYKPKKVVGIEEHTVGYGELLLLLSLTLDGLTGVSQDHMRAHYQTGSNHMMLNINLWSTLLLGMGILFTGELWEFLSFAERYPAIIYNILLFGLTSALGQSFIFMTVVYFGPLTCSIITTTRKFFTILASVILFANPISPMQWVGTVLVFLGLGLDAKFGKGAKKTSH

[2] = target: T1, human SLC35B1 (wild type); assay: Competitive uptake assay: [3H]ADP uptake with 1 mM cold nucleotide; type: biochemical; conditions: for Normalized SLC35B1-mediated uptake of [3H]ADP in competition with cold nucleotide: 1 mM external cold nucleotide, proteoliposomes preloaded with 1 mM ATP; for [3H]ADP uptake in the presence of cold competitor nucleotide (individual replicates; no-competitor control about 100): competitor 1mM, sheet ED 6F, SLC35B1 proteoliposomes
[3] = target: T1, human SLC35B1 (wild type); assay: IC50 for competitive inhibition of [3H]ADP uptake in proteoliposomes; type: biochemical; conditions: for IC50: wild-type SLC35B1 proteoliposomes
[4] = target: T1, human SLC35B1 (wild type); type: binding; conditions: for ΔTm (average melting temperature increase) / ΔTm, individual titrations (source data): 1 mM nucleotide; for ΔTm (average melting temperature increase): purified wild-type SLC35B1–GFP; for ΔTm, individual titrations (source data): wild-type SLC35B1–GFP; for GFP fluorescence after heating (source data Fig 1B): 1 mM substrate
[5] = target: T1, human SLC35B1 (wild type); assay: STD NMR of nucleotide interaction with SLC35B1 proteoliposomes; type: binding; conditions: for Total STD amplification factor (STD NMR signal): 500 μM substrate
[6] = external cold nucleotide 100 uM

[3H]ADP import with nucleotide preloading, relative to ATP preloading [1]: approximately 30%
Normalized SLC35B1-mediated uptake of [3H]ADP in competition with cold nucleotide [2]: strong competition
Normalized [3H]-ADP uptake activity (IC50 curve) ([3]; external cold nucleotide 0.1 uM, 0.1 µM): 98.9492 and 98.9864
activity at 0.1 µM ([3]; external cold nucleotide 0.1 uM, read-out: Normalized [3H]-ADP uptake activity (IC50 curve)): 102%
Normalized [3H]-ADP uptake activity (IC50 curve) ([3]; external cold nucleotide 1 uM, 1 µM): 96.2847 and 99.2915
activity at 1 µM ([3]; external cold nucleotide 1 uM, read-out: Normalized [3H]-ADP uptake activity (IC50 curve)): 90.8%
Normalized [3H]-ADP uptake activity (IC50 curve) ([3]; external cold nucleotide 10 uM, 10 µM): 69.0203 and 73.0881
activity at 10 µM ([3]; external cold nucleotide 10 uM, read-out: Normalized [3H]-ADP uptake activity (IC50 curve)): 65%
Normalized [3H]-ADP uptake activity (IC50 curve) ([3]; external cold nucleotide 100 uM, 100 µM): 29.139 and 27.9119
activity at 100 µM ([3]; external cold nucleotide 100 uM, read-out: Normalized [3H]-ADP uptake activity (IC50 curve)): 28.6%
Compound: O=c1ccn([C@@H]2O[C@H](CO[P@@](=O)(O)O[P@@](=O)(O)OP(=O)(O)O)[C@@H](O)[C@H]2O)c(=O)[nH]1 (stereo in doubt) [UTP, uridine triphosphate]
radiolabelled nucleotide uptake into proteoliposomes preloaded with the named nucleotide (individual replicates; ATP-loaded about 100) [1]: 26.76 and 31.4277 and 36.8954 and 31.1375 and 33.6917 and 28.9625
[3H]ADP uptake in the presence of cold competitor nucleotide (individual replicates; no-competitor control about 100) [2]: 11.6037 and 12.7556 and 12.0037 and 16.836 and 18.152 and 16.556

ΔTm (average melting temperature increase) [4]: 1.1 °C
ΔTm, individual titrations (source data) [4]: 1.3 and 1.29 and 0.78
Compound: Nc1ncnc2c1ncn2[C@@H]1O[C@H](COP(=O)(O)O)[C@@H](O)[C@H]1O [AMP, adenosine monophosphate]
GFP fluorescence after heating (source data Fig 1B) ([4]; temperature 4): 106.601 and 104.432 and 95.3539 and 89.0072 and 98.5673 and 95.7555
GFP fluorescence after heating (source data Fig 1B) ([4]; temperature 10): 120.178 and 88.2039 and 92.06 and 93.2651
GFP fluorescence after heating (source data Fig 1B) ([4]; temperature 20): 106.039 and 98.5673 and 92.7027 and 90.0516 and 90.7747 and 95.3539
GFP fluorescence after heating (source data Fig 1B) ([4]; temperature 30): 90.132 and 77.6476 and 78.8286 and 77.1736 and 79.5837 and 81.6163
GFP fluorescence after heating (source data Fig 1B) ([4]; temperature 40): 21.7011 and 19.6043 and 15.5232 and 15.3143 and 15.5553 and 16.68
GFP fluorescence after heating (source data Fig 1B) ([4]; temperature 50): 5.771 and 5.947 and 3.195 and 3.312 and 3.387 and 3.526

Compound: Nc1ncnc2c1ncn2[C@@H]1O[C@H](COP(=O)(O)OP(=O)(O)NP(=O)(O)O)[C@@H](O)[C@H]1O [AMP–PNP, adenylyl imidodiphosphate]
1H integral (off-resonance spectrum) [5]: 2.67E+09
STD integral [5]: 3.83E+08
Total STD amplification factor (STD NMR signal) [5]: equivalent
Total STD amplification factor (STD NMR signal) ([5]; listed as AMP-PNP): 7.167
Single time point (1 min) uptake of [3H]-ADP by proteoliposomes preloaded with the nucleotide [1]: equivalent
Single time point (1 min) uptake of [3H]-ADP by proteoliposomes preloaded with the nucleotide ([1]; listed as AMP-PNP): 7.11 and 6.164 and 6.553
Normalized [3H]-ADP uptake activity (IC50 curve) ([3]; external cold nucleotide 0.01 uM, listed as ANP-PNP): 99.81 and 108.605 and 100.75 and 104.879 and 96.5643 and 94.0286
Normalized [3H]-ADP uptake activity (IC50 curve) ([3]; external cold nucleotide 0.1 uM, listed as ANP-PNP): 114.525 and 102.005 and 84.315 and 93.8643 and 84.5 and 91.8286
Normalized [3H]-ADP uptake activity (IC50 curve) ([3]; external cold nucleotide 1 uM, listed as ANP-PNP): 100.22 and 103.765 and 80.9 and 74.0571 and 74.9429

Compound: Nc1ccn([C@@H]2O[C@H](COP(=O)(O)OP(=O)(O)O)[C@@H](O)[C@H]2O)c(=O)n1 [CDP]
Normalized SLC35B1-mediated uptake of [3H]ADP in competition with cold nucleotide [2]: more effective at competition
[3H]ADP uptake in the presence of cold competitor nucleotide (individual replicates; no-competitor control about 100) [2]: 1.97 and 2.619 and 2.963 and 13.22 and 12.328 and 14.044

ΔTm, individual titrations (source data) [4]: 2.66 and 3.39 and 2.37
[3H]ADP import with nucleotide preloading, relative to ATP preloading [1]: approximately 30%
Normalized SLC35B1-mediated uptake of [3H]ADP in competition with cold nucleotide [2]: strong competition
Normalized [3H]-ADP uptake activity (IC50 curve) ([3]; external cold nucleotide 0.1 uM): 103.844 and 97.7104 and 98.4453
Normalized [3H]-ADP uptake activity (IC50 curve) ([3]; external cold nucleotide 1 uM): 95.8764 and 97.0509 and 95.3887
Normalized [3H]-ADP uptake activity (IC50 curve) ([3]; external cold nucleotide 10 uM): 67.7481 and 70.5094 and 62.095
Normalized [3H]-ADP uptake activity (IC50 curve) [3, 6]: 15.0773 and 20.2633 and 19.2811
IC50 [3]: 21 µM
Compound: Nc1ccn([C@@H]2O[C@H](COP(=O)(O)OP(=O)(O)OP(=O)(O)O)[C@@H](O)[C@H]2O)c(=O)n1 [CTP, cytidine triphosphate]
radiolabelled nucleotide uptake into proteoliposomes preloaded with the named nucleotide (individual replicates; ATP-loaded about 100) [1]: 34.7169 and 32.8215 and 35.0431 and 28.1 and 30.3083 and 22.2
[3H]ADP uptake in the presence of cold competitor nucleotide (individual replicates; no-competitor control about 100) [2]: 12.014 and 11.0419 and 12.1535 and 17.168 and 20.672 and 19.484

Compound: Nc1nc2c(ncn2[C@@H]2O[C@H](COP(=O)(O)OP(=O)(O)OP(=O)(O)O)[C@@H](O)[C@H]2O)c(=O)[nH]1 [GTP]
ΔTm (average melting temperature increase) [4]: poor thermostabilization
ΔTm, individual titrations (source data) [4]: 1.35 and 2.4 and 1.45
1H integral (off-resonance spectrum) [5]: 4.09E+10
STD integral [5]: 2.66E+09
Total STD amplification factor (STD NMR signal) [5]: low STD NMR signals
Normalized SLC35B1-mediated uptake of [3H]ADP in competition with cold nucleotide [2]: only weak competition
[3H]ADP uptake in the presence of cold competitor nucleotide (individual replicates; no-competitor control about 100) [2]: 82.2279 and 86.0047 and 83.9395 and 58.276 and 54.036 and 48.82
Normalized [3H]-ADP uptake activity (IC50 curve) ([3]; external cold nucleotide 1 uM): 88.1 and 101.287 and 103.95
Normalized [3H]-ADP uptake activity (IC50 curve) ([3]; external cold nucleotide 10 uM): 84.475 and 90.925 and 119.487
Normalized [3H]-ADP uptake activity (IC50 curve) [3, 6]: 92.075 and 105.213 and 83.1625
Normalized [3H]-ADP uptake activity (IC50 curve) ([3]; external cold nucleotide 1000 uM): 48.75 and 67.325 and 73.7625
Normalized [3H]-ADP uptake activity (IC50 curve) ([3]; external cold nucleotide 100000 uM): 2.4125 and 1.7125 and 1.675
IC50 [3]: 3500 µM

Compound: O=c1ccn([C@@H]2O[C@H](COP(=O)(O)OP(=O)(O)O)[C@@H](O)[C@H]2O)c(=O)[nH]1 [UDP, uridine diphosphate]
Normalized SLC35B1-mediated uptake of [3H]ADP in competition with cold nucleotide [2]: more effective at competition
[3H]ADP uptake in the presence of cold competitor nucleotide (individual replicates; no-competitor control about 100) [2]: 0.8481 and 1.885 and 1.122 and 21.524 and 20.444 and 14.96

IC50 [3]: 29 µM and 29.1 µM
Compound: O=c1ccn([C@@H]2O[C@H](COP(=O)(O)OP(=O)(O)OP(=O)(O)O)[C@@H](O)[C@H]2O)c(=O)[nH]1 [UTP, uridine triphosphate]

Compound: Nc1ncnc2c1ncn2[C@@H]1O[C@H](COP(=O)(O)OP(=O)(O)OP(=O)(O)O)[C@@H](O)[C@H]1O [[^3H]ATP]
One-minute uptake of [3H]ATP by SLC35B1 proteoliposomes ([1]; Unloaded (preloaded with buffer)): 0.4851
